In ChEMBL document CHEMBL4270495, “Oleanane-, ursane-, and quinone methide friedelane-type triterpenoid derivatives: Recent advances in cancer treatment” (Eur J Med Chem, 2017):
Blank lines part the entries; values can stand above or below the molecule they belong to.

Experiments:
[1] = system: Huh-7; test: Cytotoxicity in human HuH7 cells assessed as reduction in cell viability incubated for 72 hrs by cell-titer Glo asay; format: functional, cell-based; conditions: Huh-7, 72 h
[2] = system: Hep 3B2; test: Cytotoxicity in human Hep3B cells assessed as reduction in cell viability incubated for 72 hrs by cell-titer Glo asay; format: functional, cell-based
[3] = system: HepG2; test: Cytotoxicity in human HepG2 cells assessed as reduction in cell viability incubated for 72 hrs by cell-titer Glo asay; format: functional, cell-based; conditions: HepG2, 72 h
[4] = system: HL-60; test: Cytotoxicity in human HL60 cells assessed as reduction in cell viability incubated for 24 hrs by MTT assay; format: functional, cell-based; conditions: HL-60, 24 h
[5] = system: MCF7; test: Cytotoxicity in human MCF7 cells assessed as reduction in cell viability incubated for 48 hrs by SRB assay; format: functional, cell-based; conditions: MCF7, 48 h
[6] = system: A549; test: Cytotoxicity in human A549 cells assessed as reduction in cell viability incubated for 48 hrs by SRB assay; format: functional, cell-based; conditions: A549, 48 h
[7] = system: PC-3; test: Cytotoxicity in human PC3 cells assessed as reduction in cell viability incubated for 48 hrs by SRB assay; format: functional, cell-based; conditions: PC-3, 48 h
[8] = system: NIH3T3; test: Cytotoxicity in mouse NIH/3T3 cells assessed as reduction in cell viability incubated for 96 hrs by SRB assay; format: cell-based; conditions: NIH3T3, 96 h
[9] = system: A549; test: Cytotoxicity in human A549 cells assessed as reduction in cell viability incubated for 96 hrs by SRB assay; format: functional, cell-based; conditions: A549, 96 h
[10] = system: HT-29; test: Cytotoxicity in human HT-29 cells assessed as reduction in cell viability incubated for 96 hrs by SRB assay; format: functional, cell-based; conditions: HT-29, 96 h
[11] = system: HepG2; test: Cytotoxicity in human HepG2 cells assessed as reduction in cell viability; format: functional, cell-based
[12] = system: MCF7; test: Cytotoxicity in human MCF7 cells assessed as reduction in cell viability; format: functional, cell-based
[13] = system: BGC-823; test: Cytotoxicity in human BGC823 cells assessed as reduction in cell viability incubated for 72 hrs by MTT assay; format: functional, cell-based; conditions: BGC-823, 72 h
[14] = system: PC-3; test: Cytotoxicity in human PC3 cells assessed as reduction in cell viability incubated for 72 hrs by MTT assay; format: functional, cell-based; conditions: PC-3, 72 h
[15] = system: MDA-MB-231; test: Cytotoxicity in human MDA-MB-231 cells assessed as reduction in cell viability incubated for 24 hrs by MTT assay; format: functional, cell-based; conditions: MDA-MB-231, 24 h
[16] = system: HMEC; test: Cytotoxicity in human HMEC cells assessed as reduction in cell viability incubated for 48 hrs by SRB assay; format: cell-based
[17] = system: MCF7; test: Cytotoxicity in human MCF7 cells assessed as reduction in cell viability incubated for 24 hrs by MTT assay; format: functional, cell-based; conditions: MCF7, 24 h
[18] = system: 4T1; test: Cytotoxicity in mouse 4T1 cells assessed as reduction in cell viability incubated for 24 hrs by MTT assay; format: functional, cell-based; conditions: 4T1, 24 h
[19] = system: ASPC1; test: Growth inhibition of human AsPC1 cells incubated for 72 hrs by MTT assay; format: functional, cell-based; conditions: ASPC1, 72 h
[20] = system: AGS; test: Antiproliferative activity in human AGS cells incubated for 3 days by MTT assay; format: functional, cell-based; conditions: 72 h
[21] = system: BJ; test: Cytotoxicity in human BJ cells assessed as reduction in cell viability incubated for 72 hrs by MTT assay; format: functional, cell-based
[22] = system: HeLa; test: Cytotoxicity in human HeLa cells assessed as reduction in cell viability incubated for 72 hrs by MTT assay; format: functional, cell-based
[23] = system: MCF7; test: Cytotoxicity in human MCF7 cells assessed as reduction in cell viability incubated for 72 hrs by MTT assay; format: functional, cell-based; conditions: MCF7, 72 h
[24] = system: HT-29; test: Cytotoxicity in human HT-29 cells assessed as reduction in cell viability incubated for 72 hrs by MTT assay; format: functional, cell-based; conditions: HT-29, 72 h
[25] = system: BGC-823; test: Cytotoxicity in human BGC823 cells assessed as reduction in cell viability incubated for 48 hrs by MTT assay; format: functional, cell-based; conditions: BGC-823, 48 h
[26] = system: HeLa; test: Cytotoxicity in human HeLa cells assessed as reduction in cell viability incubated for 48 hrs by MTT assay; format: functional, cell-based
[27] = system: HepG2; test: Cytotoxicity in human HepG2 cells assessed as reduction in cell viability incubated for 48 hrs by MTT assay; format: functional, cell-based; conditions: HepG2, 48 h

SMILES: CC1=C(O)C(=O)C=C2C1=CC=C1[C@@]2(C)CC[C@@]2(C)[C@@H]3C[C@](C)(C(=O)OCc4ccccc4)CC[C@]3(C)CC[C@]12C
IC50 [1]: 2.15 µM | IC50 [2]: 2.77 µM | IC50 [3]: 4.26 µM

SMILES: CCC(=O)O[C@H]1CC[C@@]2(C)[C@@H](CC[C@]3(C)[C@@H]2CC=C2[C@@H]4[C@@H](C)[C@H](C)CC[C@]4(C)CC[C@]23C)[C@@]1(C)C(=O)O
IC50 [4]: 14 µM | IC50 [5]: 29 µM | IC50 [6]: 29 µM | IC50 [7]: 31 µM

SMILES: COC(=O)[C@]12CCC(C)(C)C[C@H]1C1=CC[C@@H]3[C@@]4(C)C[C@@H](O)[C@H](OS(N)(=O)=O)C(C)(C)[C@@H]4CC[C@@]3(C)[C@]1(C)CC2
IC50 [8]: 2.2 µM | IC50 [9]: 4 µM | IC50 [10]: 3.5 µM

SMILES: CC(=O)O/N=C1\CC[C@]2(C)[C@H]3CC=C4[C@@H]5[C@@H](C)[C@H](C)CC[C@]5(C(=O)O)CC[C@@]4(C)[C@]3(C)CC[C@H]2C1(C)C
IC50 [11]: 4.3 µM | IC50 [12]: 3.4 µM

SMILES: CCCC(=O)O[C@H]1CC[C@]2(C)[C@H]3CC=C4[C@@H]5CC(C)(C)CC[C@]5(C(=O)n5ccc(=O)[nH]c5=O)CC[C@@]4(C)[C@]3(C)CC[C@H]2C1(C)C
IC50 [13]: 0.22 µM | IC50 [14]: 0.28 µM

SMILES: CC(=O)Oc1ccccc1C(=O)O[C@H]1CC[C@]2(C)[C@H]3CC=C4[C@@H]5[C@@H](C)[C@H](C)CC[C@]5(C(=O)O)CC[C@@]4(C)[C@]3(C)CC[C@H]2C1(C)C
IC50 [15]: 63.9 µM | IC50 [16]: > 100 µM | IC50 [17]: 72.2 µM | IC50 [18]: 62 µM

IC50 [19]: < 5 µM
SMILES: COC(=O)[C@]12CCC(C)(C)C[C@H]1C1=CC[C@@H]3[C@@]4(C)C/C(=C/n5ccnc5)C(=O)C(C)(C)[C@@H]4CC[C@@]3(C)[C@]1(C)CC2

IC50 [20]: 8.9 µM
SMILES: CC1(C)CC[C@]2(C(=O)O)CC[C@]3(C)C(=CC[C@@H]4[C@@]5(C)CC[C@H](OC(=O)CCc6cn(-c7ccc(Cl)cc7)nn6)C(C)(C)[C@@H]5CC[C@]43C)[C@@H]2C1

SMILES: COC(=O)[C@]12CC[C@@H](C)[C@H](C)[C@H]1C1=CC(=O)[C@@H]3[C@@]4(C)C(C=O)=C[C@@](C)(CO)[C@@H]4CC[C@@]3(C)[C@]1(C)CC2
IC50 [21]: 3.33 µM | IC50 [22]: 0.3 µM | IC50 [23]: 0.74 µM | IC50 [24]: 0.59 µM

SMILES: CC(=O)O/N=C1\CC[C@]2(C)[C@H]3CC=C4[C@@H]5[C@@H](C)[C@H](C)CC[C@]5(C(=O)Nc5ccccc5)CC[C@@]4(C)[C@]3(C)CC[C@H]2C1(C)C
IC50 [25]: 8.1 µM | IC50 [26]: 9.3 µM | IC50 [27]: 21.2 µM
